# Measured values published in patent publication US10874103B2, “Antibacterial composition comprising an acetal or a long-chain alkyl hexitane ether” (TEREOS STARCH & SWEETENERS BELGIUM, priority 2014, dated 2020).
# Assays:
# Assay type in all cases: cell-based
# [1] = system: E. faecalis (ATCC® 29212™); assay: MIC, 96-well microplate microdilution (Example 4); details: Mueller-Hinton medium, 18 h at 37° C.
# Description: (§1) The bacteriostatic properties of the derivatives are evaluated by measuring their minimum inhibitory concentration (MIC) on the bacteria tested. Such a measurement is made using the 96-well microplate microdilution method according to the conditions defined below.
# (§2) The minimum inhibitory concentrations (MIC) are tested on Gram-positive bacterial strains according to the recommendations of the “Clinical Laboratory Standards Institute” (Clinical-Laboratory-Standards-Institute, 6th ed. Approved standard M100-S17. CLSI, Wayne, Pa., 2007).
# (§3) The Gram-positive bacteria studied are as follows: L. monocytogenes (CIP 103575), E. faecalis (ATCC® 29212™) and S. aureus (ATCC® 292213™).
# (§4) The cultures studied, freshly isolated (after incubation on a blood agar at 37° C. for 18 h), are taken up in sterile water (10 mL) until a 0.5 McFarland (Mc) suspension i.e. 1 to 2×10^8 CFU (bacteria)/cm^3 is obtained. The bacterial suspension was then diluted to obtain a final concentration of 5×10^5 CFU/cm^3.
# (§5) Each well contains an identical quantity of Mueller-Hinton medium (a rich medium for bacterial culture) and bacteria with final 5×10^5 CFU/cm^3.
# (§6) The test compounds of interest are solubilized in 2.5% m of ethanol before being diluted to different concentrations two by two.
# (§7) On the multiwell plate, a first series has been planned comprising the culture medium without the test compound of interest. It corresponds to the growth control (control well). These controls serve as reference for comparing bacterial growth with that of the subsequent wells comprising different concentrations of the test compound of interest. The second series of wells comprises the mother solution for the test compound of interest for a concentration in the wells of 4 mM. Each series of wells was diluted two by two until the last series for a final concentration of 0.003 mM. Each concentration is duplicated in the same plate. The plate is incubated for 18 h at 37° C. […] If there is antibacterial activity, the bacterial growth is inhibited, which means that no turbidity or bacterial residue is present.
# (§8) Tests have been conducted on Gram-positive bacteria with sorbitan derivatives. […] After sterilization the solutions are diluted in water. The results obtained for antimicrobial tests on the 3 bacterial strains L. monocytogenes (CIP 103575), E. faecalis (ATCC® 29212™) and S. aureus (ATCC® 292213™) are summarized in Table 1.
# [2] = system: L. monocytogenes (CIP 103575); assay: MIC, 96-well microplate microdilution (Example 4); details: Mueller-Hinton medium, 18 h at 37° C.
# Description: as §1, §2, §3, §4, §5, §6, §7, §8
# [3] = system: S. aureus (ATCC® 292213™); assay: MIC, 96-well microplate microdilution (Example 4); details: ATCC 292213; Mueller-Hinton medium, 18 h at 37° C.
# Description: as §1, §2, §3, §4, §5, §6, §7, §8
# [4] = system: L. monocytogenes (CIP 103575), E. faecalis (ATCC® 29212™) and S. aureus (ATCC® 292213™); assay: MIC microdilution, statements for all three Gram-positive strains together; details: listed as Sorbitan dodecyl ether
# Description: as §1, §2, §3, §4, §5, §6
# On the multiwell plate, a first series has been planned comprising the culture medium without the test compound of interest. […]
# [5] = system: L. monocytogenes (CIP 103575), E. faecalis (ATCC® 29212™) and S. aureus (ATCC® 292213™); assay: MBC, statement for all Gram-positive strains tested together; details: all three strains
# Description: To determine whether the agents tested are bactericidal, the minimum bactericidal concentration (MBC) is determined. The MBC corresponds to the concentration leaving a number of bacterial survivors of <4 log. For this, a bacterial count is run from clear wells or without bacterial residue (C≤MIC). To do this, a dilution to 1/100 was conducted with the two wells with the same concentration before seeding on a blood agar using the Spiral technique. After 24 h of incubation at 37° C., the visual count allowed determination of the minimum concentration from which there is no bacterial growth.
# To determine the bactericidal effect of compounds presenting bacteriostatic properties, the wells no longer presenting turbidity were reseeded on agar.
# [6] = system: Listeria: L. monocytogenes strains; assay: MIC microdilution on wider panel (Example 8), Listeria strains
# Description: The cultures studied, freshly isolated (after incubation on a blood agar at 37° C. for 18 h), are taken up in sterile water (10 mL) until a 0.5 McFarland (Mc) suspension i.e. at 1 to 2×10^8 CFU (bacteria)/cm^3 is obtained. The bacterial suspension was then diluted to obtain a final concentration of 1×10^6 CFU/cm^3. Each well contains an identical quantity of Mueller-Hinton medium (a rich medium for bacterial culture) and bacteria with final 0.5×10^6 CFU/cm^3. The test compounds of interest are solubilized in ethanol or DMSO at 25 mg/mL before being diluted to different concentrations two by two. On the multiwell plate, a first series has been planned comprising the culture medium without the test compound of interest. It corresponds to the growth control (control well). These controls serve as reference for comparing bacterial growth with that of the subsequent wells comprising different concentrations of the test compound of interest. The second series of wells comprises the mother solution for the test compound of interest for a concentration in the wells of 256 mg (7 mM). Each series of wells was diluted two by two until the last series for a final concentration of 0.25 mg/L (0.0007 mM). Each concentration is duplicated in the same plate. The plate is incubated for 18 h at 37° C. […] If there is antibacterial activity, the bacterial growth is inhibited, which means that no turbidity or bacterial residue is present. The minimum inhibitory concentrations (MIC) are tested on Gram-positive bacterial strains according to the recommendations of the “Clinical Laboratory Standards Institute” (Clinical-Laboratory-Standards-Institute, 6th ed. Approved standard M100-S17. CLSI, Wayne, Pa., 2007). The clinical strains have been isolated in the Hospice de Lyon. Listeria: L. monocytogenes (CIP 103575), clinical strain isolated from hemoculture (015189074801, LM1), a strain isolated from cerebrospinal liquid (015170199001, LM2), clinical strains isolated from hemoculture (015181840701, LM3). The cultures studied, freshly isolated (after incubation on a blood agar at 37° C. for 18 h), are taken up in sterile water (10 mL) until a 0.5 McFarland (Mc) suspension i.e. at 10^8 CFU (bacteria)/cm^3 is obtained. The bacterial suspension was then diluted to obtain a final concentration of 10^6 CFU/cm^3.
substance,measurement,setting,value
"Dodecyl-1,4-d-sorbitan [Example 2e]",Minimum inhibitory concentration (MIC) E. faecalis,[1],120 µM
same,Minimum inhibitory concentration (MIC) L. monocytogenes,[2],120 µM
same,Minimum inhibitory concentration (MIC) S. aureus,[3],120 µM
same,MIC / inhibitory concentration on the bacterial strains studied,[4],120 µM
same,MBC for all the Gram-positive strains tested,[5],120 µM
same,Minimum inhibitory concentration (MIC) CIP 103575,[6]; L. monocytogenes CIP 103575,32 µg/mL
same,Minimum inhibitory concentration (MIC) LM3,[6]; clinical strain from hemoculture 015181840701,32 µg/mL
same,Minimum inhibitory concentration (MIC) LM1,[6]; clinical strain from hemoculture 015189074801,16 µg/mL
same,Minimum inhibitory concentration (MIC) LM2,[6]; strain from cerebrospinal liquid 015170199001,32 µg/mL
